Laboratory results: PMC6504641 (Chembiochem : a European journal of chemical biology, 2018)

Target: BRAF (Homo sapiens, UniProt P15056)
Experiment: ELISA kinase assay, phospho-MEK1 readout
Type: biochemical

BRAF, sequence (P15056 whole entry): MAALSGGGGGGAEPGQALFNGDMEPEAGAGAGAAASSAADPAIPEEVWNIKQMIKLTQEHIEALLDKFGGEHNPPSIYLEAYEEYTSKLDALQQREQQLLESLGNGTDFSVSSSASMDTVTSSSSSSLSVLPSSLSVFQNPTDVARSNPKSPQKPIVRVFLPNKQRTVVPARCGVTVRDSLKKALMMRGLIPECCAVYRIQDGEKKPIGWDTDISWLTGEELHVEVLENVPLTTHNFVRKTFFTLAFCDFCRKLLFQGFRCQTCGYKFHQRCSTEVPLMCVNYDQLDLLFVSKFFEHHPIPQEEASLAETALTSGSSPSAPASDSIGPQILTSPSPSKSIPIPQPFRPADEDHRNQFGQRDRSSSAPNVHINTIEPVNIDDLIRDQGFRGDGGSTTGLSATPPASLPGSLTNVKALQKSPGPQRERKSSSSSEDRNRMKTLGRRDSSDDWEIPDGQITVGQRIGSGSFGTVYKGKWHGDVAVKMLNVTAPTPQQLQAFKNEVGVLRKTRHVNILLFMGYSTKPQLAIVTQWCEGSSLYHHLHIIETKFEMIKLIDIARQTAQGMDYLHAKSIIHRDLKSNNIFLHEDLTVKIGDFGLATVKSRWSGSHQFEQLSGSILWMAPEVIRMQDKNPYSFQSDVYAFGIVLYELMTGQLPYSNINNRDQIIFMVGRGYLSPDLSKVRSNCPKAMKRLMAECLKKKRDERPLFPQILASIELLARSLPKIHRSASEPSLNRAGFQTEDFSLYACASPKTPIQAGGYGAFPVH

N#Cc1c(Oc2ccc(F)c(NC(=O)Cc3cccc(C(F)(F)F)c3)c2)ccc2nc(NC(=O)C3CC3)sc12 [TAK-632]
IC50: 0.7 nM
